Columns and labels:
CDK2/Cyclin A = CDK2/Cyclin A (Homo sapiens (Human), UniProt P24941); test: Invitrogen Z'-LYTE kinase assay CDK2/Cyclin A (assay ID 315, Km app, 10-point titration); format: biochemical; details: Km app ATP
From the text: (§1) CDK2 and CDK5 IC50 data were attained through the use of Invitrogen™ commercial assays. The method for CDK2 (assay ID: 315, kinase|Z'-LYTE™|CDK2/Cyclin A|Km app) used a 10-point titration. The method for CDK5 (assay ID: 318, kinase|Z'-LYTE™|CDK5/p25|Km app) used a 10-point titration.

CDK5/p25 = CDK5/p25 (Homo sapiens (Human), UniProt Q00535); test: Invitrogen Z'-LYTE kinase assay CDK5/p25 (assay ID 318, Km app, 10-point titration); format: biochemical; details: CDK5/p25, Km app ATP
Chain of CDK5/p25 (Q00535 whole entry): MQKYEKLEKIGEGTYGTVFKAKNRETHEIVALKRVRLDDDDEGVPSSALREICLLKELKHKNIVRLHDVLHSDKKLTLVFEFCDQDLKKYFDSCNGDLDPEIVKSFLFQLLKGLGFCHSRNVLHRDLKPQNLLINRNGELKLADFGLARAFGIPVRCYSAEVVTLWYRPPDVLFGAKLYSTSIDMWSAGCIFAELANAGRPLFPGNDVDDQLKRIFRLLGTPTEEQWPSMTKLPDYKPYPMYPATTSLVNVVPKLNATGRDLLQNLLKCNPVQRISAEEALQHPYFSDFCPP
Chain of CDK5/p25 (Q15078 99-307 partner): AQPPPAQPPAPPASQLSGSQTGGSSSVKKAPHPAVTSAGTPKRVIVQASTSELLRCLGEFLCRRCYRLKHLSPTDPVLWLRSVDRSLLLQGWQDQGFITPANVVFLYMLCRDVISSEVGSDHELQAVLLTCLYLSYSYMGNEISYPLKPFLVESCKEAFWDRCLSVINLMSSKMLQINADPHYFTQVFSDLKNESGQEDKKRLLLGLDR
From the text: as §1

CDK2 = CDK2 (Homo sapiens (Human), UniProt P24941); test: Knockdown of CDK2/5 in OVCAR8 cells, immunoblot: CDK2; format: cell-based; details: various concentrations, 6 hours
CDK5 = CDK5 (Homo sapiens (Human), UniProt Q00535); test: Knockdown of CDK2/5 in OVCAR8 cells, immunoblot: CDK5; format: cell-based; details: various concentrations, 6 hours
Chain of CDK5 (Q00535 whole entry): as the sequence (Q00535 whole entry) above

CDK9 = CDK9 (Homo sapiens (Human), UniProt P50750); test: Knockdown of CDKs in Jurkat cells, immunoblot: CDK9; format: cell-based; details: 0.25 μM, 6 hours
Chain of CDK9 (P50750 whole entry): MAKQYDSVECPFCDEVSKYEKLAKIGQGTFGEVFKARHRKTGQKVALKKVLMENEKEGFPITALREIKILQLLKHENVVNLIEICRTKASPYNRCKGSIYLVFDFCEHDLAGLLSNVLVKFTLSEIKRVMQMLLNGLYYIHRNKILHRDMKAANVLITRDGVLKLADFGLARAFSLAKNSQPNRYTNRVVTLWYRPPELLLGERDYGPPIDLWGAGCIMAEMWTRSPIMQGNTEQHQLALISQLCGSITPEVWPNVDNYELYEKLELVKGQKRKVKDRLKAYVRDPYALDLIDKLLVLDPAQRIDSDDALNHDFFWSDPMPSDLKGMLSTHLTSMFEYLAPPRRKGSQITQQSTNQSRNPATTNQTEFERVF
Method: Jurkat acute T cell leukemia cells were treated with 0, 0.1 μM, 1 μM, and 10 μM of compounds 1-7 or 0.25 μM THAL-SNS-032 (a known CDK9 degrader, as a positive control for CDK9 degradation) for 6 hours, and then lysed and immunoblotted with antibodies to CDK1, CDK2, CDK5, CDK7, CDK9, CDK12, CDK13 and R-Actin (FIG. 1A-FIG. 2B).

Structure (SMILES)	IC50 (CDK2/Cyclin A) [nM]	IC50 (CDK5/p25) [nM]	knockdown of CDK2 (CDK2)	knockdown of CDK5 (CDK5)	CDK9 degradation (CDK9)
NC(=O)c1c(F)cccc1Nc1nc(NC2CCN(S(=O)(=O)CCNC(=O)CCCCCCCCOc3cccc4c3C(=O)N(C3CCC(=O)NC3=O)C4=O)CC2)ncc1Br (stereo not shown) [Compound 5, 2-((5-bromo-2-((1-((2-(9-((2-(2,6-dioxopiperidin-3-yl)-1,3-dioxoisoindolin-4-yl)oxy)nonanamido)ethyl)sulfonyl)piperidin-4-yl)amino)pyrimidin-4-yl)amino)-6-fluorobenzamide]	28.7	16.1	selective knockdown	selective knockdown	
Cc1ncsc1-c1ccc([C@H](C)NC(=O)[C@@H]2C[C@@H](O)CN2C(=O)[C@@H](NC(=O)CCOCCOCCOCCC(=O)NCCS(=O)(=O)N2CCC(Nc3ncc(Br)c(Nc4cccc(F)c4C(N)=O)n3)CC2)C(C)(C)C)cc1 [Compound 9, (2S,4R)-1-((S)-19-((4-((5-bromo-4-((2-carbamoyl-3-fluorophenyl)amino)pyrimidin-2-yl)amino)piperidin-1-yl)sulfonyl)-2-(tert-butyl)-4,16-dioxo-7,10,13-trioxa-3,17-diazanonadecanoyl)-4-hydroxy-N—((S)-1-(4-(4-methylthiazol-5-yl)phenyl)ethyl)pyrrolidine-2-carboxamide]	7.5	4.1			
Cc1ncsc1-c1ccc([C@H](C)NC(=O)[C@@H]2C[C@@H](O)CN2C(=O)[C@@H](NC(=O)CCCCC(=O)NCCS(=O)(=O)N2CCC(Nc3ncc(Br)c(Nc4cccc(F)c4C(N)=O)n3)CC2)C(C)(C)C)cc1 [Compound 10, N^1-(2-((4-((5-bromo-4-((2-carbamoyl-3-fluorophenyl)amino)pyrimidin-2-yl)amino)piperidin-1-yl)sulfonyl)ethyl)-N^6—((S)-1-((2S,4R)-4-hydroxy-2-(((S)-1-(4-(4-methylthiazol-5-yl)phenyl)ethyl)carbamoyl)pyrrolidin-1-yl)-3,3-dimethyl-1-oxobutan-2-yl)adipamide]	9.1	4.3			
O=C(CCCCCCCCOc1cccc2c1C(=O)N(C1CCC(=O)NC1=O)C2=O)NCCS(=O)(=O)N1CCC(Nc2ncc(Br)c(Nc3cccc4c3OCO4)n2)CC1 (stereo not shown) [Compound 17, N-(2-((4-((4-(benzo[d][1,3]dioxol-4-ylamino)-5-bromopyrimidin-2-yl)amino)piperidin-1-yl)sulfonyl)ethyl)-9-((2-(2,6-dioxopiperidin-3-yl)-1,3-dioxoisoindolin-4-yl)oxy)nonanamide]	253	924			
O=C(CCOCCOCCOCCOCCNc1cccc2c1C(=O)N(C1CCC(=O)NC1=O)C2=O)NCCS(=O)(=O)N1CCC(Nc2ncc(Br)c(N3CCCc4ccccc43)n2)CC1 (stereo not shown) [Compound 18, N-(2-((4-((5-bromo-4-(3,4-dihydroquinolin-1(2H)-yl)pyrimidin-2-yl)amino)piperidin-1-yl)sulfonyl)ethyl)-1-((2-(2,6-dioxopiperidin-3-yl)-1,3-dioxoisoindolin-4-yl)amino)-3,6,9,12-tetraoxapentadecan-15-amide]	23.7	27.4			
NC(=O)c1c(F)cccc1Nc1nc(NC2CCN(S(=O)(=O)CCNC(=O)CCOCCOCCOCCOCCNc3cccc4c3C(=O)N(C3CCC(=O)NC3=O)C4=O)CC23CC3)ncc1Br (stereo not shown) [Compound 19, N-(2-((8-((5-bromo-4-((2-carbamoyl-3-fluorophenyl)amino)pyrimidin-2-yl)amino)-5-azaspiro[2.5]octan-5-yl)sulfonyl)ethyl)-1-((2-(2,6-dioxopiperidin-3-yl)-1,3-dioxoisoindolin-4-yl)amino)-3,6,9,12-tetraoxapentadecan-15-amide]	116	71.3			
O=C(CCOCCOCCOCCOCCNc1cccc2c1C(=O)N(C1CCC(=O)NC1=O)C2=O)NCCS(=O)(=O)N1CCC(Nc2ncc(Br)c(Nc3cccc4c3C(=O)NC4)n2)CC1 (stereo not shown) [Compound 20, N-(2-((4-((5-bromo-4-((3-oxoisoindolin-4-yl)amino)pyrimidin-2-yl)amino)piperidin-1-yl)sulfonyl)ethyl)-1-((2-(2,6-dioxopiperidin-3-yl)-1,3-dioxoisoindolin-4-yl)amino)-3,6,9,12-tetraoxapentadecan-15-amide]	4.7	5.8			
O=C(CCCCCCCCOc1cccc2c1C(=O)N(C1CCC(=O)NC1=O)C2=O)NCCS(=O)(=O)N1CCC(Nc2ncc(Br)c(Nc3cccc4c3C(=O)NC4)n2)CC1 (stereo not shown) [Compound 21, N-(2-((4-((5-bromo-4-((3-oxoisoindolin-4-yl)amino)pyrimidin-2-yl)amino)piperidin-1-yl)sulfonyl)ethyl)-9-((2-(2,6-dioxopiperidin-3-yl)-1,3-dioxoisoindolin-4-yl)oxy)nonanamide]	10.5	7.6			
Cn1ncc(Nc2nc(NC3CCN(S(=O)(=O)CCNC(=O)CCCCCCCCOc4cccc5c4C(=O)N(C4CCC(=O)NC4=O)C5=O)CC3)ncc2Br)c1C(N)=O (stereo not shown) [Compound 22, 4-((5-bromo-2-((1-((2-(9-((2-(2,6-dioxopiperidin-3-yl)-1,3-dioxoisoindolin-4-yl)oxy)nonanamido)ethyl)sulfonyl)piperidin-4-yl)amino)pyrimidin-4-yl)amino)-1-methyl-1H-pyrazole-5-carboxamide]	5.7	5.7			
NC(=O)c1c(F)cccc1Nc1nc(Nc2ccc(S(=O)(=O)NCCOCCOCCOCCOCCNc3cccc4c3C(=O)N(C3CCC(=O)NC3=O)C4=O)cc2)ncc1Br (stereo not shown) [Compound 23, 2-((5-bromo-2-((4-(N-(14-((2-(2,6-dioxopiperidin-3-yl)-1,3-dioxoisoindolin-4-yl)amino)-3,6,9,12-tetraoxatetradecyl)sulfamoyl)phenyl)amino)pyrimidin-4-yl)amino)-6-fluorobenzamide]	10.9	7			
Cc1cc(Nc2ncc(Br)c(Nc3cccc(F)c3C(N)=O)n2)ccc1S(=O)(=O)NCCOCCOCCOCCOCCNc1cccc2c1C(=O)N(C1CCC(=O)NC1=O)C2=O (stereo not shown) [Compound 25, 2-((5-bromo-2-((4-(N-(14-((2-(2,6-dioxopiperidin-3-yl)-1,3-dioxoisoindolin-4-yl)amino)-3,6,9,12-tetraoxatetradecyl)sulfamoyl)-3-methylphenyl)amino)pyrimidin-4-yl)amino)-6-fluorobenzamide]	8.1	7.1			
Cc1cc(S(=O)(=O)NCCOCCOCCOCCOCCNC(=O)COc2cccc3c2C(=O)N(C2CCC(=O)NC2=O)C3=O)ccc1Nc1ncc(Br)c(Nc2cccc(F)c2C(N)=O)n1 (stereo not shown) [Compound 46, 2-((5-bromo-2-((4-(N-(1-((2-(2,6-dioxopiperidin-3-yl)-1,3-dioxoisoindolin-4-yl)oxy)-2-oxo-6,9,12,15-tetraoxa-3-azaheptadecan-17-yl)sulfamoyl)-2-methylphenyl)amino)pyrimidin-4-yl)amino)-6-fluorobenzamide]	1.7	1.4			
Cc1cc(S(=O)(=O)NCCCCCCCCCCNC(=O)COc2cccc3c2C(=O)N(C2CCC(=O)NC2=O)C3=O)ccc1Nc1ncc(Br)c(Nc2cccc(F)c2C(N)=O)n1 (stereo not shown) [Compound 47, 2-((5-bromo-2-((4-(N-(10-(2-((2-(2,6-dioxopiperidin-3-yl)-1,3-dioxoisoindolin-4-yl)oxy)acetamido)decyl)sulfamoyl)-2-methylphenyl)amino)pyrimidin-4-yl)amino)-6-fluorobenzamide]	19.4	18.2			
Cc1cc(S(=O)(=O)NCCCCN2CCN(C(=O)COc3cccc4c3C(=O)N(C3CCC(=O)NC3=O)C4=O)CC2)ccc1Nc1ncc(Br)c(Nc2cccc(F)c2C(N)=O)n1 (stereo not shown) [Compound 48, 2-((5-bromo-2-((4-(N-(4-(4-(2-((2-(2,6-dioxopiperidin-3-yl)-1,3-dioxoisoindolin-4-yl)oxy)acetyl)piperazin-1-yl)butyl)sulfamoyl)-2-methylphenyl)amino)pyrimidin-4-yl)amino)-6-fluorobenzamide]	2	2.9			
CC(C)(C)c1cnc(CSc2cnc(NC(=O)C3CCN(CC(=O)NCCOCCOCCOCCNc4cccc5c4C(=O)N(C4CCC(=O)NC4=O)C5=O)CC3)s2)o1 (stereo not shown) [THAL-SNS-032]					induced CDK9 degradation

From patent US12466809B2, “CDK2/5 degraders and uses thereof” (DANA-FARBER CANCER INSTITUTE, INC., priority 2019, dated 2025)
